According to PubChem BioAssay (NCI):
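Tested at 5 concentrations; 48 h exposure; 96-well plates; endpoints linearly interpolated, else capped at highest concentration. TGI: concentration producing complete growth inhibition.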

How the values were obtained:
Experiment in all cases: NCI-60 cell line screen, 48 h
DMS 114 small cell lung = system: DMS 114 small cell lung
IGROV1 ovarian = system: IGROV1 ovarian
MDA-MB-435 = system: MDA-MB-435
NCI-H226 lung = system: NCI-H226 lung
NCI-H460 lung = system: NCI-H460 lung
NCI/ADR-RES ovarian = system: NCI/ADR-RES ovarian
SF-295 CNS = system: SF-295 CNS
SK-MEL-2 melanoma = system: SK-MEL-2 melanoma
SNB-78 CNS = system: SNB-78 CNS
T-47D breast = system: T-47D breast

For `O=C1C=C(Br)c2c(-c3ccccc3)oc3cccc1c23`, the TGI (DMS 114 small cell lung) was greater than 100 µM, the TGI (IGROV1 ovarian) was greater than 100 µM and the TGI (MDA-MB-435) was greater than 100 µM. For the same compound, the TGI (NCI-H226 lung) was greater than 100 µM, the TGI (NCI-H460 lung) was greater than 100 µM and the TGI (NCI/ADR-RES ovarian) was greater than 100 µM. It also gave a TGI (SF-295 CNS) greater than 100 µM, a TGI (SK-MEL-2 melanoma) greater than 100 µM and a TGI (SNB-78 CNS) greater than 100 µM. For the same compound, the TGI (T-47D breast) was greater than 100 µM.

For `CCCCNCC(=O)O[C@]1(CC)C(=O)OCc2c1cc1n(c2=O)Cc2cc3ccccc3nc2-1`, the TGI (DMS 114 small cell lung) was 4.69 µM, the TGI (IGROV1 ovarian) was greater than 39.3 µM and the TGI (MDA-MB-435) was 11.3 µM. The TGI (NCI-H226 lung) was 2.06 µM, the TGI (NCI-H460 lung) was 1.68 µM and the TGI (NCI/ADR-RES ovarian) was 2.03 µM. It also gave a TGI (SF-295 CNS) of 11.7 µM, a TGI (SK-MEL-2 melanoma) of 8.76 µM and a TGI (SNB-78 CNS) greater than 100 µM. For the same compound, the TGI (T-47D breast) was 2.44 µM.

With `CS(=O)(=O)Oc1cccc(/C=N/N=C(\N)NO)c1` the TGI (DMS 114 small cell lung) was greater than 100 µM, the TGI (IGROV1 ovarian) was greater than 100 µM and the TGI (NCI-H226 lung) was 95.6 µM. The TGI (NCI-H460 lung) was greater than 100 µM, the TGI (SF-295 CNS) was greater than 100 µM and the TGI (SK-MEL-2 melanoma) was greater than 100 µM. The TGI (SNB-78 CNS) was greater than 100 µM.

For `CCCCCCCCCCCC(=O)OCCOCCOCCOCCOCCOCc1ccc(OC)cc1`, the TGI (DMS 114 small cell lung) was greater than 100 µM, the TGI (IGROV1 ovarian) was greater than 100 µM and the TGI (NCI-H226 lung) was greater than 100 µM. For the same compound, the TGI (NCI-H460 lung) was greater than 100 µM, the TGI (SF-295 CNS) was greater than 100 µM and the TGI (SK-MEL-2 melanoma) was greater than 100 µM. For the same compound, the TGI (SNB-78 CNS) was greater than 100 µM.

`CCOC(=O)C(C)(c1cn(C)c2ccccc12)c1cn(C)c2ccccc12` was tested, and the TGI (DMS 114 small cell lung) was greater than 100 µM, the TGI (IGROV1 ovarian) was greater than 100 µM and the TGI (NCI-H226 lung) was greater than 100 µM. For the same compound, the TGI (NCI-H460 lung) was greater than 100 µM, the TGI (SF-295 CNS) was greater than 100 µM and the TGI (SK-MEL-2 melanoma) was greater than 100 µM. The TGI (SNB-78 CNS) was greater than 100 µM.
